Source: PMC7561186, “Rational design of balanced dual-targeting antibiotics with limited resistance” (PLoS Biology, 2020)
Where two headings read alike, the source gives them in different places.

Test system: S. aureus clinical isolates
Assay: microbe, parasite or virus in culture
Assay type: cell-based
Conditions: Staphylococcus aureus, read-out: MIC

Measured: MIC

CC[C@H]1OC(=O)[C@H](C)[C@@H](O[C@H]2C[C@@](C)(OC)[C@@H](O)[C@H](C)O2)[C@H](C)[C@@H](O[C@@H]2O[C@H](C)C[C@H](N(C)C)[C@H]2O)[C@](C)(O)C[C@@H](C)CN(C)[C@H](C)[C@@H](O)[C@]1(C)O [Azithromycin]
32 µg/mL: MRSA, S. aureus IHMA 1584223, MRSA / VSSA | MRSA, S. aureus IHMA 1720350, MRSA / VSSA | MSSA, S. aureus IHMA 1594297, MSSA / VSSA
8 µg/mL: MSSA / NRS 17 / VISA, S. aureus IHMA 1308247, NRS17, MSSA / VISA
16 µg/mL: MRSA, S. aureus IHMA 1612228, MRSA / VSSA
1 µg/mL: ATCC 29213 / MSSA, S. aureus ATCC 29213, MSSA / VSSA, test date 2018-10-25 (three repeat lines) | ATCC 29213 / MSSA, S. aureus ATCC 29213, MSSA / VSSA, test date 2018-11-07 | MRSA, S. aureus IHMA 1575629, MRSA / VSSA | MRSA, S. aureus IHMA 1586780, MRSA / VSSA | MRSA, S. aureus IHMA 1591462, MRSA / VSSA | MRSA, S. aureus IHMA 1621638, MRSA / VSSA | MRSA, S. aureus IHMA 1622252, MRSA / VSSA | MRSA, S. aureus IHMA 1622527, MRSA / VSSA | MRSA, S. aureus IHMA 1766357, MRSA / VSSA | MSSA / NRS 13 / VISA, S. aureus IHMA 1308245, NRS13, MSSA / VISA | MSSA, S. aureus IHMA 1563826, MSSA / VSSA | MSSA, S. aureus IHMA 1565492, MSSA / VSSA | MSSA, S. aureus IHMA 1575652, MSSA / VSSA | MSSA, S. aureus IHMA 1576329, MSSA / VSSA | MSSA, S. aureus IHMA 1577800, MSSA / VSSA | MSSA, S. aureus IHMA 1578560, MSSA / VSSA | MSSA, S. aureus IHMA 1580925, MSSA / VSSA | MSSA, S. aureus IHMA 1580955, MSSA / VSSA | MSSA, S. aureus IHMA 1582586, MSSA / VSSA | MSSA, S. aureus IHMA 1584230, MSSA / VSSA | MSSA, S. aureus IHMA 1587279, MSSA / VSSA | MSSA, S. aureus IHMA 1592749, MSSA / VSSA | MSSA, S. aureus IHMA 1592751, MSSA / VSSA | MSSA, S. aureus IHMA 1599157, MSSA / VSSA | MSSA, S. aureus IHMA 1599506, MSSA / VSSA | MSSA, S. aureus IHMA 1604609, MSSA / VSSA | MSSA, S. aureus IHMA 1622864, MSSA / VSSA | MSSA, S. aureus IHMA 1713793, MSSA / VSSA
0.5 µg/mL: MRSA / NRS 21 / VISA, S. aureus IHMA 649388, NRS21, MRSA / VISA | MRSA, S. aureus IHMA 1580300, MRSA / VSSA | MRSA, S. aureus IHMA 1588127, MRSA / VSSA | MRSA, S. aureus IHMA 1592755, MRSA / VSSA | MRSA, S. aureus IHMA 1703428, MRSA / VSSA | MSSA / NRS 12 / VISA, S. aureus IHMA 1308244, NRS12, MSSA / VISA | MSSA / NRS 14 / VISA, S. aureus IHMA 1308246, NRS14, MSSA / VISA | MSSA, S. aureus IHMA 1569499, MSSA / VSSA | MSSA, S. aureus IHMA 1574202, MSSA / VSSA | MSSA, S. aureus IHMA 1591459, MSSA / VSSA | MSSA, S. aureus IHMA 1626392, MSSA / VSSA
> 32 µg/mL: MRSA / NRS 3 / VISA, S. aureus IHMA 1308243, NRS3, MRSA / VISA | MRSA / NRS 4 / VISA, S. aureus IHMA 649380, NRS4, MRSA / VISA | MRSA / NRS 18 / VISA, S. aureus IHMA 649386, NRS18, MRSA / VISA | MRSA / NRS 19 / VISA, S. aureus IHMA 649387, NRS19, MRSA / VISA | MRSA / NRS 22 / USA600 / VISA, S. aureus IHMA 649389, NRS22, MRSA / VISA, USA600 | MRSA / NRS 23 / VISA, S. aureus IHMA 649390, NRS23, MRSA / VISA | MRSA / NRS 24 / VISA, S. aureus IHMA 649391, NRS24, MRSA / VISA | MRSA / NRS 26, S. aureus IHMA 649392, NRS26, MRSA / VSSA | MRSA / NRS 27 / VISA, S. aureus IHMA 1308248, NRS27, MRSA / VISA | MRSA / NRS 29 / VISA, S. aureus IHMA 1308250, NRS29, MRSA / VISA | MRSA / NRS 37 / VISA, S. aureus IHMA 1308251, NRS37, MRSA / VISA | MRSA / NRS 54, S. aureus IHMA 1308253, NRS54, MRSA / VSSA* (*Expected VAN intermediate, confirmed VAN susceptible twice), test date 2018-11-07 | MRSA / NRS 56 / VISA, S. aureus IHMA 1308254, NRS56, MRSA / VISA | MRSA / USA100 / VRSA, S. aureus IHMA 672230, VRS1, MRSA / VRSA, USA100 | MRSA / USA100 / VRSA, S. aureus IHMA 672231, VRS2, MRSA / VRSA, USA100 | MRSA / USA100 / VRSA, S. aureus IHMA 672234, VRS4, MRSA / VRSA, USA100 | MRSA / USA100 / VRSA, S. aureus IHMA 672235, VRS5, MRSA / VRSA, USA100 | MRSA / USA100 / VRSA, S. aureus IHMA 672237, VRS7, MRSA / VRSA, USA100 | MRSA / USA100 / VRSA, S. aureus IHMA 672238, VRS8, MRSA / VRSA, USA100 | MRSA / USA100 / VRSA, S. aureus IHMA 672239, VRS9, MRSA / VRSA, USA100 | MRSA / USA100 / VRSA, S. aureus IHMA 1308256, VRS10, MRSA / VRSA, USA100 | MRSA / USA100 / VRSA, S. aureus IHMA 1308258, VRS11b, MRSA / VRSA, USA100 | MRSA / USA800 / VRSA, S. aureus IHMA 672233, VRS3b, MRSA / VRSA, USA800 | MRSA, S. aureus IHMA 1569509, MRSA / VSSA | MRSA, S. aureus IHMA 1575268, MRSA / VSSA | MRSA, S. aureus IHMA 1577820, MRSA / VSSA | MRSA, S. aureus IHMA 1580940, MRSA / VSSA | MRSA, S. aureus IHMA 1582100, MRSA / VSSA | MRSA, S. aureus IHMA 1583795, MRSA / VSSA | MRSA, S. aureus IHMA 1585316, MRSA / VSSA | MRSA, S. aureus IHMA 1587322, MRSA / VSSA | MRSA, S. aureus IHMA 1592776, MRSA / VSSA | MRSA, S. aureus IHMA 1597106, MRSA / VSSA | MRSA, S. aureus IHMA 1602095, MRSA / VSSA | MRSA, S. aureus IHMA 1611170, MRSA / VSSA | MRSA, S. aureus IHMA 1611612, MRSA / VSSA | MRSA, S. aureus IHMA 1620441, MRSA / VSSA | MRSA, S. aureus IHMA 1695391, MRSA / VSSA | MRSA, S. aureus IHMA 1732989, MRSA / VSSA | MRSA, S. aureus IHMA 1742231, MRSA / VSSA | MSSA / NRS 28 / VISA, S. aureus IHMA 1308249, NRS28, MSSA / VISA | MSSA / USA100 / VRSA, S. aureus IHMA 672236, VRS6, MSSA / VRSA, USA100 | MSSA, S. aureus IHMA 1569754, MSSA / VSSA | MSSA, S. aureus IHMA 1575779, MSSA / VSSA | MSSA, S. aureus IHMA 1580233, MSSA / VSSA | MSSA, S. aureus IHMA 1582691, MSSA / VSSA | MSSA, S. aureus IHMA 1597120, MSSA / VSSA | MSSA, S. aureus IHMA 1597125, MSSA / VSSA | MSSA, S. aureus IHMA 1602078, MSSA / VSSA | MSSA, S. aureus IHMA 1609919, MSSA / VSSA
0.25 µg/mL: MRSA, S. aureus IHMA 1666371, MRSA / VSSA | MSSA / NRS 52, S. aureus IHMA 1308252, NRS52, MSSA / VSSA* (*Expected VAN intermediate, confirmed VAN susceptible twice), test date 2018-11-07 | MSSA, S. aureus IHMA 1604586, MSSA / VSSA
